Assays:
Conditions in all cases: incubation time: 72 h
BT-474 [1] = assay: normalised response (% of control), CellTox Green; higher = less cell death (100 = DMSO, 0 = benzethonium chloride kill control)
Summary of the method: (§1)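 Two readouts were taken after 72 h: CellTox Green fluorescence (485/520 nm) first, then CellTiter-Glo luminescence after 10 min at room temperature. Breast cancer cell lines had been seeded as 20 µl suspension into 384-well plates holding compound at 5 concentrations in 10-fold steps across a compound-specific 10,000-fold range. Each value is a normalised signal at a single concentration, with plates scaled to 0.1 % DMSO (100) and a positive kill control (0).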

BT-549 [2] = assay: as above
Summary of the method: as §1

CAL-120 [3] = assay: as above
Summary of the method: as §1

CAL-148 [4] = assay: as above
Summary of the method: as §1

CAL-51 [5] = assay: as above
Summary of the method: as §1

CAL-85-1 [6] = assay: as above
Summary of the method: as §1

DU-4475 [7] = assay: as above
Summary of the method: as §1

HCC1143 [8] = assay: as above
Summary of the method: as §1

HCC1599 [9] = assay: as above
Summary of the method: as §1

HCC1937 [10] = assay: as above
Summary of the method: as §1

HDQ-P1 [11] = assay: as above
Summary of the method: as §1

Hs578T [12] = assay: as above
Summary of the method: as §1

MCF-10A [13] = assay: as above
Summary of the method: as §1

MDA-MB-231 [14] = assay: as above
Summary of the method: as §1

MDA-MB-453 [15] = assay: as above
Summary of the method: as §1

MDA-MB-468 [16] = assay: as above
Summary of the method: as §1

MFM-223 [17] = assay: as above
Summary of the method: as §1

BT-474 [18] = assay: normalised response (% of control), CellTiter-Glo; higher = more viable cells (100 = DMSO, 0 = benzethonium chloride kill control)
Protocol: (§2)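 DSRT, 72 h incubation, CellTox Green / CellTiter-Glo readout. Signal is normalised to DMSO and benzethonium chloride controls. Value is the normalised response at dose 3.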

BT-549 [19] = assay: as above
Protocol: as §2

CAL-120 [20] = assay: as above
Protocol: as §2

CAL-148 [21] = assay: as above
Protocol: as §2

CAL-51 [22] = assay: as above
Protocol: as §2

CAL-85-1 [23] = assay: as above
Protocol: as §2

DU-4475 [24] = assay: as above
Protocol: as §2

HCC1143 [25] = assay: as above
Protocol: as §2

HCC1599 [26] = assay: as above
Protocol: as §2

HCC1937 [27] = assay: as above
Protocol: as §2

HDQ-P1 [28] = assay: as above
Protocol: as §2

Hs578T [29] = assay: as above
Protocol: as §2

MCF-10A [30] = assay: as above
Protocol: as §2

MDA-MB-231 [31] = assay: as above
Protocol: as §2

MDA-MB-436 [32] = assay: as above
Protocol: as §2

MDA-MB-453 [33] = assay: as above
Protocol: as §2

MDA-MB-468 [34] = assay: as above
Protocol: as §2

MFM-223 [35] = assay: as above
Protocol: as §2

SK-BR-3 = assay: as above
Protocol: as §2

MDA-MB-436 [36] = assay: normalised response (% of control), CellTox Green; higher = less cell death (100 = DMSO, 0 = benzethonium chloride kill control)
Summary of the method: as §1

Row | Structure (SMILES) | normalised response (BT-474 [1]) [%] | normalised response (BT-549 [2]) [%] | normalised response (CAL-120 [3]) [%] | normalised response (CAL-148 [4]) [%] | normalised response (CAL-51 [5]) [%] | normalised response (CAL-85-1 [6]) [%] | normalised response (DU-4475 [7]) [%] | normalised response (HCC1143 [8]) [%] | normalised response (HCC1599 [9]) [%] | normalised response (HCC1937 [10]) [%] | normalised response (HDQ-P1 [11]) [%] | normalised response (Hs578T [12]) [%] | normalised response (MCF-10A [13]) [%] | normalised response (MDA-MB-231 [14]) [%] | normalised response (MDA-MB-453 [15]) [%] | normalised response (MDA-MB-468 [16]) [%] | normalised response (MFM-223 [17]) [%] | normalised response (BT-474 [18]) [%] | normalised response (BT-549 [19]) [%] | normalised response (CAL-120 [20]) [%] | normalised response (CAL-148 [21]) [%] | normalised response (CAL-51 [22]) [%] | normalised response (CAL-85-1 [23]) [%] | normalised response (DU-4475 [24]) [%] | normalised response (HCC1143 [25]) [%] | normalised response (HCC1599 [26]) [%] | normalised response (HCC1937 [27]) [%] | normalised response (HDQ-P1 [28]) [%] | normalised response (Hs578T [29]) [%] | normalised response (MCF-10A [30]) [%] | normalised response (MDA-MB-231 [31]) [%] | normalised response (MDA-MB-436 [32]) [%] | normalised response (MDA-MB-453 [33]) [%] | normalised response (MDA-MB-468 [34]) [%] | normalised response (MFM-223 [35]) [%] | normalised response (SK-BR-3) [%] | normalised response (MDA-MB-436 [36]) [%]
1 | O=C(NC[C@H](O)CO)c1ccncc1Nc1ccc(I)cc1F [Pimasertib] (100 nM) | 98 | 59.3 | 96.5 | 107 | 107 | 91.4 | 69.4 | 99.8 | 118 | 101 | 104 | 113 | 98.9 | 59.1 | 99.4 | 108 | 107 | 81.9 | 103 | 92.4 | 90.4 | 73.7 | 82.4 | 4.09 | 94.7 | 85.2 | 89.2 | 67.1 | 88.9 | 41.7 | 83.5 | 97.5 | 112 | 95.3 | 103 | 94 | –
2 | COc1nc(N)nc2c1ncn2[C@@H]1O[C@H](CO)[C@@H](O)[C@@H]1O [Nelarabine] (100 nM) | 75.7 | 98.7 | 98.4 | 104 | 93.8 | 90.6 | 95.2 | – | 87 | 88.7 | – | 107 | – | 92.1 | 97.5 | 135 | 100 | 89.2 | 98.1 | 94.2 | 83.2 | 90.7 | 94.7 | 93.6 | 103 | 103 | 95.5 | 95.9 | 87.1 | 84.9 | 94.2 | 94 | 87.2 | 95.6 | 89 | 77.8 | 90.5
3 | Cc1cccc(-c2nn3c(c2-c2ccnc4ccc(C(N)=O)cc24)CCC3)n1 [Galunisertib] (10 nM) | 103 | 114 | 105 | 106 | 114 | 107 | 109 | 70.5 | 116 | 123 | – | 100 | 82.4 | 116 | 103 | 101 | 107 | 108 | 104 | 109 | 112 | 120 | 96.8 | 108 | 103 | 102 | 101 | 104 | 103 | 111 | 113 | 106 | 110 | 107 | 106 | 110 | 104
4 | Cc1c(Cn2c(C)nc3c(C(=O)O)cc(N4CCOCC4)cc32)cccc1C(F)(F)F (100 nM) | 104 | 111 | 106 | 105 | 86.7 | 104 | 109 | 113 | 107 | 78 | – | 109 | 101 | 124 | 111 | 134 | 107 | 97.2 | 86.2 | 102 | 111 | 62.5 | 96.6 | 103 | 101 | 101 | 94.5 | 103 | 101 | 111 | 104 | 102 | 91.3 | 89.2 | 108 | 107 | 108
5 | O=C(CCBr)N1CCN(C(=O)CCBr)CC1 [Pipobroman] (100 nM) | 87.5 | 70.2 | 101 | 105 | 101 | 109 | 101 | 108 | 96.6 | – | 107 | – | 84.8 | 94.4 | – | – | 103 | 102 | 97.6 | 102 | 105 | 88 | 101 | 106 | 105 | 115 | 106 | 102 | 105 | 106 | 105 | 91.5 | 93.2 | 102 | 103 | 107 | 101
6 | CCCCC/C=C/C=C1/C(=O)C=C[C@@H]1C/C=C\CCCC(=O)O [15D-PGJ2] (8 nM) | 102 | 112 | 99.3 | 88.1 | 107 | 109 | 110 | 105 | 111 | 101 | – | 113 | 64.6 | 118 | – | 82 | 100 | 98.7 | 99.3 | 107 | 112 | 97.1 | 100 | 101 | 104 | 86.3 | 99.1 | 103 | 96.9 | 101 | 107 | 101 | 100 | 94 | 98.5 | 99.4 | 103
7 | Cc1c(CN2CCN(C(=O)[C@H](C)O)CC2)sc2c(N3CCOCC3)nc(-c3cnc(N)nc3)nc12 [GDC-0980] (100 nM) | 101 | 106 | 102 | – | 112 | 106 | 99.9 | 113 | 106 | 114 | 110 | – | 83.3 | 81.2 | 98 | 124 | 105 | 93.5 | 90.1 | 96.2 | 102 | 86.3 | 99.9 | 98 | 92.9 | 98.3 | 89.3 | 84 | 86.2 | 90.8 | 97.1 | 92.5 | 75.8 | 95.9 | 93.6 | 72.5 | 108
8 | CC(=O)OC[C@H]1O[C@@H]([S-])[C@H](OC(C)=O)[C@@H](OC(C)=O)[C@@H]1OC(C)=O.CCP(CC)CC.[Au+] [Auranofin] (25 nM) | 105 | 110 | 110 | 108 | 100 | 122 | 112 | 88.9 | 111 | 113 | 93.8 | – | 62.3 | 123 | 109 | 117 | 102 | 96.8 | 93.1 | 100 | 111 | 92.5 | 99 | 98.2 | 104 | 89.1 | 93.8 | 101 | 103 | 104 | 103 | 103 | 104 | 103 | 97.8 | 101 | –
9 | O=S(=O)(c1cccc2cnccc12)N1CCCNCC1 [Fasudil] (500 nM) | 98.3 | 91.3 | 100 | 69.2 | 102 | 95.6 | 100 | 75 | 101 | 83.3 | 102 | 104 | 95 | 101 | 99.9 | 78.7 | 91.7 | 98.3 | 101 | 97.9 | 105 | 85.6 | 112 | 106 | 101 | 107 | 100 | 105 | 104 | 90.7 | 103 | 103 | 112 | 101 | 108 | 101 | –
